Assay results from patent publication US11192849B2, “Compounds, compositions, and methods for modulating ferroptosis and treating excitotoxic disorders” (THE TRUSTEES OF COLUMBIA UNIVERSITY IN THE CITY OF NEW YORK, priority 2013, dated 2021).
Entries after “also recorded” stand apart in the source; their conditions may differ. Where two headings read alike, the source gives them in different places.

How the values were obtained:
[1] = test system: primary pre-oligodendrocytes; experiment: PVL model: cystine deprivation of developing oligodendrocytes; format: cell-based, rat; details: 100 nM, 24 hrs, Alamar Blue
Protocol: Primary pre-oligodendrocytes cultures were prepared from the forebrains of P2 Sprague Dawley (Charles River Laboratory) rat pups using a differential detachment method. Forebrains free of meninges were dissociated with Hanks' Balanced Salt Solution containing 0.01% trypsin and 10 μg/ml DNase, and triturated with DMEM containing 10% heat-inactivated fetal bovine serum and 100 U/ml penicillin and 100 μg/ml streptomycin. Dissociated cells were plated onto poly-D-lysine-coated 75 cm^2 flasks and fed cells every other day for 10-17 days. On day 10 or 17, following 1 hour pre-shake at 200 rpm 37° C. to remove microglia, the flasks were shaken overnight to separate pre-oligodendrocytes from astrocyte layer. The cell suspension was passed through a 20 μm filter and plated onto uncoated (bacteriological) petri dishes for 1 hour in incubator to remove residual microglia/astrocytes. Cell suspension was plated onto poly-D,L-ornithine-coated plates with DMEM, 1×ITS (Life Technologies), 2 mM L-glutamine, 1 mM sodium pyruvate, 0.5% FBS and 0.05% gentamicin (Sigma), 10 ng/ml PDGF and 10 ng/ml FGF (Peprotech), with full medium change the next day and half medium change every other day. […] Fluorescence was assayed in each well using FluoroCount Plate Reader (Packard), with Packard Plate Reader Version 3.0, and 530 nm excitation, and 590 nm emission filters. […]

[2] = test system: mouse kidney proximal tubules; experiment: Hydroxyquinoline + iron induced cell death in isolated mouse kidney proximal tubules (LDH release); format: cell-based; details: 10 μM hydroxyquinoline and ferrous ammonium sulfate, 60 min
Protocol: Tubule preparation: 8-12 week old C57/BL6 female mice were euthanized with isoflurane. […] The cortices were then dissected and minced on an ice cold tile, then resuspended in additional Solution A for 8-10 min. of digestion at 37° C. followed by enrichment of proximal tubules using centrifugation on self-forming Percoll gradients as previously described for rabbit tubules.
Experimental procedures for isolated tubules: Tubules were suspended at 1.5-2.0 mg tubule protein/ml in a 95% air/5% CO2-gassed medium containing (in mM) 110 NaCl, 2.6 KCl, 25 NaHCO3, 2.4 KH2PO4, 1.25 CaCl2, 1.2 MgCl2, 1.2 MgSO4, 5 glucose, 4 sodium lactate, 0.3 alanine, 5 sodium butyrate, 2 glycine, and 1.0 mg/ml bovine gelatin (75 bloom) (Solution B). After precincubation for 15 min. at 37° C., then were then resuspended in fresh Solution B containing 2 mM heptanoic acid instead of sodium butyrate along with experimental compounds.
In addition, the efficacy of Fer-1, SRS11-92, and selected analogs was tested in a model of iron-induced cell death in freshly isolated mouse kidney proximal tubules that simulates major elements of rhabdomyolysis-induced acute kidney injury (FIG. 15C). Cell death in this model is known to involve oxidative lipid damage (Sogabe, et al., 1996, Park, et al., 2011); it was therefore believed that Fer-1 might be protective. 10 μM each of hydroxyquinoline and ferrous ammonium sulfate (HQ+Fe) were used to induce cell death, which was quantified by monitoring LDH release after 60 min. […] By implication, cell death in these models may involve, at least in part, the induction of lipid peroxidation and perhaps ferroptosis.

[3] = test system: HT-1080 cells; experiment: Inhibition of erastin (10 μM)-induced death in HT-1080 cells (Alamar Blue); format: cell-based, human; details: for EC50: Homo sapiens
How it was run: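 HT-1080 cells (1,000/well) were treated next day with 10 μM erastin plus a compound dilution series for 24 h. Alamar Blue (10% final) was then added for 6 h and fluorescence read at ex/em 530/590.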

SMILES | protection of oligodendrocytes from cystine deprivation [1] | HQ+Fe induced lethality (LDH release) [2] | EC50 ([3]; HT-1080, SI Table 2, analogs with various hydrophobic moieties) [µM] | EC50 ([3]; HT-1080, SI Table 5) [µM] | EC50 ([3]; HT-1080, SI Table 8) [µM] | EC50 ([3]; HT-1080, Table 1 (Example 10), erastin (10 μM)-treated HT-1080 cells) [µM] | prevention of erastin-induced death ([3]; erastin-treated HT-1080 cells) | fold more potent than the parent Fer-1 ([3]; HT-1080, erastin (10 μM)) [fold] | potency compared with Fer-1 ([3]; HT-1080, erastin (10 μM)) | EC50 ([3]; HT-1080, Example 15, erastin (10 μM), HT-1080, read-out: EC50) [µM] | EC50 ([3]; HT-1080, SI Table 6, read-out: EC50) [µM] | EC50 ([3]; HT-1080, SI Table 7, read-out: EC50) [µM]
CCOC(=O)c1ccc(NC2CCCCC2)c(N)c1 [SRS8-28 (Fer-1), ethyl 3-amino-4-(cyclohexylamino)benzoate] | fully protected OLs from cystine deprivation | prevented lethality; also recorded: protective | 0.095 | 0.088 | 0.088 | 0.095 | suppressed erastin-induced death |  |  |  |  | 
CCOC(=O)c1ccc(NC2CCCCC2)c(NCc2ccccc2)c1 [SRS11-92, ethyl 3-(benzylamino)-4-(cyclohexylamino)benzoate] | fully protected OLs from cystine deprivation | prevented lethality |  |  |  |  |  | 15 | more potent than Fer-1 | 0.006 | 0.006 | 0.006
